# Measurements reported in US20060099712A1, “Correlation of anti-cancer activity of dyes with redox potentials” (Eastman Kodak Company, priority 2004, published 2006).
# Read-outs that look alike come from different tables or passages of the source.
# How the values were obtained:
# [1] = test system: CX-1 Human Colon Carcinoma; assay: Clonogenic dye screening assay, CX-1 cells (IC50); format: cell-based; conditions: for IC50: Homo sapiens, unit from method; for Selectivity: Table 1, cell line not given, values equal CV/CX of Table II; for CV/CX (selectivity, kill ratio): ratio of IC50 in normal CV-1 line to IC50 in carcinoma CX-1 line
# How it was run: (§1)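 Cells seeded 16-30 h ahead (2000 CX-1 or 1000 CV-1 per well), exposed to serially diluted dyes for 3 h at 37 °C, rinsed three times, then grown into colonies. Eight-point curves spanned 0.32-0.0015 μg/mL (CX-1) and 3.2-0.025 μg/mL (CV-1). IC50 is the concentration killing 50% of cells.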
# [2] = Clonogenic dye screening assay, CX-1 cells (IC50); format: cell-based, human; conditions: Homo sapiens, CX-1, Table XII column 5; unit from method; read-out: CV (Table XII)
# How it was run: as §1
# [3] = test system: CV-1 Normal Monkey Kidney Epithelial; assay: Clonogenic dye screening assay, CV-1 cells (IC50); format: cell-based, African green monkey; conditions: Primates, unit from method
# Source text: CX-1 is a cancerous human colon adenocarcinoma cell line. CV-1 is a non-cancerous control, which is a kidney epithelial cell line from an African green monkey. IC50 is the dye concentration at which 50% of the cells are killed. Selectivity or kill ratio is defined as the ratio of […] at IC50 for both CX-1 and CV-1. A ratio with a high number indicates a high selectivity.
# The dyes were screened in two cell lines. CX-1 is a human colon adenocarcinoma cell line. CV-1 is a kidney epithelial cell line from an African green monkey. CV-1 was used as a reference because no normal human epithelial cell line is available for clonogenic assay.
# In the initial screen, dyes were examined at six different concentrations to generate a dose response curve. An IC50 value, the concentration at which 50% of the cells are killed, was then calculated. Initially, a dye concentration of 1.0 μg/mL was the highest examined for the CX-1 cell line and 0.005 μg/mL was the lower limit. The corresponding limits on the CV-1 cell line were […].
# The screening procedure used a response curve that was determined from eight dye concentrations. The upper and lower limits of CX-1 were 0.32 and 0.0015 μg/mL, respectively, and the corresponding revised limits on CV-1 were 3.2 and 0.025 μg/mL. The screening results were reported by assigning an IC50 value to each dye for the CV-1 and CX-1 cell lines. These values will be referred to herein simply as CV and CX. The most desirable result would be to have a dye that was highly toxic to carcinoma cells but nontoxic to ‘normal’ cells. One measure of this type of selectivity is the ratio of the IC50's in the normal cell line to that in the carcinoma line, CV/CX.
# Compounds are screened via an in vitro assay. CV-1 and CX-1 cells are seeded into separate assay plates. The plates are treated with varying concentrations of test compounds, rinsed, and colonies allowed to grow. IC50's are determined and drugs evaluated based on their selectivity and toxicity. Assay Steps: • I. Seeding Cells • II. Weighing • III. Preparation of Solution • IV. Treatment • V. Rinsing and Feeding • VI. Fixing • VII. IC50 Determination I. Seeding Cells
# The cells should be seeded 16-30 hours before treatment. The media for CV-1 cells is DME+5% calf serum +5% Nuserum. The media for CX-1 cells is RPMI/DME (50/50)+5% calf serum +5% Nuserum.
# (c) number of cells based on 2000 CX-1 cells/well and 1000 CV-1 cells/well. NOTE: Always make enough cell suspension for 1 extra plate to allow for volume loss during transfers.
# • (a) For CV-1: 256 ug/ml-256 ul of 1 mg/ml stock +744 ul DMSO • (b) For CX-1: 25.6 ug/ml-100 ul of 256 ug/ml+900 ul DMSO IV. Treatment • 1. Each plate is treated with 4 test compounds, one positive control and one negative control. • 2. Serial dilutions of the compounds are made in the following way:
# 2 multi-well pipetters are used. One is set for 10 ul and one for 200 ul. Each is equipped with 6 tips spaced such that they fit into the 6 rows of a plate. 390 ul of media is added to the first column of each plate. 10 ul each of 4 compound solutions, a positive and a negative control are taken up and put into the first column of wells. The 200 ul pipetter is then placed in the same wells, pipetted up and down 3 times and two 200 ul aliquots are moved to the next column of wells. This column is pipetted up and down 3 times and 400 ul moved to column 3, etc. The final 400 ul excess from column 8 is discarded.
# • 3. Label the plates along the front, each row −1 compound. • 4. Incubate the plates at 37° C. for 3 hrs. V. Rinsing • 1. Prepare several bottles of CX-1 and CV-1 media. • 2. Check for precipitate in first column of each plate and note. • 3. Starting with the plates treated first, rinse several plates at a time by aspirating the treatments and refilling each well with 0.5-1.0 ml of the rinse media. Aspirate and refill 2 more times for a total of 3 rinses. • 4.
# [4] = Electrochemical reduction potential (Er) measurement, SHACV / fast scan CV; format: physicochemical
# Source text: In the practice of this invention the reduction potential of a given dye may be determined in various ways. If available, the published reduction potential may be employed. Reduction potentials for numerous cyanine and merocyanine dyes are available in the literature. (See J. Lenhard, Journal of Imaging Science, vol. 30 pp. 27-35 (1986).) A large amount of data has been generated on the reduction and oxidation potentials of these dyes from their use in photography and related arts where they are employed, inter alia, as spectral sensitizers.
# If a published reduction potential is not available, suitable techniques for measuring reduction potential are available. Accurate electrochemical oxidation and reduction potentials for these organic dyes can be measured by the techniques of fast scan cyclic voltommetry (CV) or second harmonic ac voltommetry (SHACV). SHACV measurements are made as described by Lenhard in the Journal of Imaging Science volume 30, 1986 pp 27-35 using a commercially available (Princeton Applied Research Corp.) potentiostat in conjunction with voltage programmer, a conventional lock-in amplifier, and a low-distortion oscillator. The SHACV method utilizes an ac voltage waveform (of a frequency greater than or equal to 400 hz) that is superimposed on a DC potential ramp. On the other hand, the measurement of the oxidation or reduction potential by the CV method utilizes a (high frequency) triangular voltage waveform. The general procedures for measuring potentials by this method have been described by Wightman in Analytical Chemistry, 1984, vol. 56, pp524 and Journal of Physical Chemistry, 1984, vol. 88, pp3915. The specific application of this technique to the measurement of cyanine dye potentials has been reported by Nomura and Okazaki, Chemistry Letters, 1990, pp2231-2234. Commercial instrumentation especially designed for fast scan (i.e., high frequency) CV is available. It is noteworthy that because of the complicated nature of many of the cyanine dyes, electrochemical reactions, conventional slow scan cyclic voltommetry or polarography methods (as described by R. Large in Photographic Sensitivity, R. Cox, ed., Academic Press, New York, 1973, pp 241-263) provide only approximate values for oxidation and reduction potentials. Errors as large as 0.4 V from the true potential can be obtained by using slow scan CV or electrochemical methods.
# The procedure for measuring the oxidation or reduction potential by the SHACV or fast scan CV method utilizes solutions of acetonitrile (or similar nonaqueous solvent) with added tetrabutylammonium tetrafluoroborate TBABF4 at a concentration of 0.1 M and ca. 5×10^−4 M of the cyanine, oxonol, or merocyanine dye. For measurement of the reduction potential the solution must be deaerated with argon prior to examination. The preferred working electrode is a Pt disk (ca. 0.02 cm^2) that is polished with 1 μm diamond paste, rinsed with water, and dried before each experiment. The reference electrode is a NaCl saturated calomel electrode. The cell and reference electrodes are maintained at 22 C. A value of 40 mV is added to the measured potentials to convert the number to that corresponding to an Ag/AgCl reference electrode. If a solvent other than acetonitrile is used then the measured potential must be referenced to a standard organic redox system such as ferrocene and corrected accordingly.
# SHACV (Second Harmonic Alternating Current Voltametry) measurements are made as described by Lenhard in the Journal of Imaging Science volume 30, 1986 pp 27-35 using a commercially available (Princeton Applied Research Corp.) potentiostat in conjunction with voltage programmer, a conventional lock-in amplifier, and a low-distortion oscillator. The SHACV method utilizes an ac voltage waveform (of a frequency greater than or equal to 400 hz) that is superimposed on a DC potential ramp. […]
# [5] = test system: SCC 68 Human Squamous Cell Carcinoma; assay: Initial in vitro screening, squamous cell carcinoma cells; format: cell-based; conditions: cell line 7, SCC 68 human squamous cell carcinoma; unit from method; read-out: IC50 (concentration at which 50% of the cells of the culture are killed)
# Source text: (§2) Other publications have shown that some cyanine dyes show anti-cancer activity. See I. Minami, Y. Kozai, H. Nomura and T. Tashiro, Chem. Phar. Bull. 30:3106 (1982); W. M. Anderson, D. L. Delinick, L. Benninger, J. M. Wood, S. T. Smiley and L. B. Chen, Biochemical Pharmacology, 45:691 (1993). […] (See L. G. S. Brooker, L. A. Sweet, Science, 105, (1947) and I. Minami, Y. Kozai, H. Nomura, T. Tashiro, Chem. Pharm. Bull., 30,3106 (1982) on chemotherapeutic investigations of cyanine dyes.) Table I lists initial in vitro screening results in various cell lines and a comparison with Adriamycin, which is a widely used chemotherapeutic agent.
# (§3) Description of Cell Line • 1. CV-1 Normal Monkey Kidney Epithelial (control) • 2. CX-1 Human Colon Carcinoma • 3. Human Breast Carcinoma • 4. Human Pancreatic Carcinoma • 5. Human Bladder Carcinoma • 6. Human Lung Carcinoma • 7. Human Squamous Cell Carcinoma • 8. Human Adrenal Cortex Carcinoma
# [6] = test system: MCF-7 Human Breast Carcinoma; assay: Initial in vitro screening, breast carcinoma cells; format: cell-based; conditions: MCF7; cell line 3, MCF-7 human breast carcinoma; unit from method; read-out: IC50 (concentration at which 50% of the cells of the culture are killed)
# Source text: as §2, §3
# [7] = test system: EJ Human Bladder Carcinoma; assay: Initial in vitro screening, bladder carcinoma cells; format: cell-based; conditions: cell line 5, EJ human bladder carcinoma; unit from method; read-out: IC50 (concentration at which 50% of the cells of the culture are killed)
# Source text: as §2, §3
# [8] = test system: CCL 185 Human Lung Carcinoma; assay: Initial in vitro screening, lung carcinoma cells; format: cell-based; conditions: cell line 6, CCL 185 human lung carcinoma; unit from method; read-out: IC50 (concentration at which 50% of the cells of the culture are killed)
# Source text: as §2, §3
# [9] = test system: CRL 1420 Human Pancreatic Carcinoma; assay: Initial in vitro screening, pancreatic carcinoma cells; format: cell-based; conditions: cell line 4, CRL 1420 human pancreatic carcinoma; unit from method; read-out: IC50 (concentration at which 50% of the cells of the culture are killed)
# Source text: as §2, §3
# [10] = test system: CCL 105 Human Adrenal Cortex Carcinoma; assay: Initial in vitro screening, adrenal cortex carcinoma cells; format: cell-based; conditions: cell line 8, CCL 105 human adrenal cortex carcinoma; unit from method; read-out: IC50 (concentration at which 50% of the cells of the culture are killed)
# Source text: as §2, §3
# [11] = Dye solubility (water, 5% dextrose/water); format: physicochemical
# Source text: Dye solubility is also a factor, since compounds having low water solubility are difficult or impossible to include in in vivo testing.
# S13 is one of the simplest cyanine dye structures possible (in this nomenclature the S refers to the sulfur, the 1 indicates one carbon on the nitrogen and 3 indicates a 3 methine chain). […] A synthetic challenge will be to enhance the activity/selectivity of this dye and retain its good water solubility. [drawing 23]
# [12] = CX-1, 3 hrs treatment, colonies after 7-10 days, read-out: CX (IC50 in the CX-1 cell line)
# [13] = CV-1, 3 hrs treatment, colonies after 7-10 days, read-out: CV (IC50 in the CV-1 cell line)
"IC50 [1, 12] [µg/mL]","ER(v), electrochemical reduction potential [4] [V]",SMILES,"IC50 [3, 13] [µg/mL]",Selectivity [1],"CV/CX (selectivity, kill ratio) [1]",further results
< 0.005,,CCN1/C(=C/C=C/c2oc3ccc(-c4ccccc4)cc3[n+]2CC)Sc2ccccc21 [Dye D-131],0.3,,,IC50 [2]: < 0.005 µg/mL
0.04,−1.15,CC[n+]1c(/C=C/C(C(=O)c2ccccc2)=P(c2ccccc2)(c2ccccc2)c2ccccc2)sc2ccccc21 [Dye D-148],> 10,250,250,
,,"CCN1/C(=C/N=N/c2sc3ccccc3[n+]2CC)Sc2ccccc21 [Dye O-1, reference compound]",,,,"IC50 [5]: 0.3 µg/mL; IC50 [6]: 0.3 µg/mL; IC50 ([1]; CX-1, cell line 2, CX-1, read-out: IC50 (concentration at which 50% of the cells of the culture are killed)): 0.5 µg/mL; IC50 ([3]; CV-1, cell line 1, CV-1 normal control, read-out: IC50 (concentration at which 50% of the cells of the culture are killed)): 7.5 µg/mL; IC50 [7]: 0.3 µg/mL; IC50 [8]: 0.8 µg/mL; IC50 [9]: 0.75 µg/mL; IC50 [10]: 0.3 µg/mL"
0.3,,CCN1/C(=C/C=C/c2sc3cc4c(cc3[n+]2CC)OCO4)Oc2ccccc21 [Dye D-163],0.3,,>60.0,IC50 [2]: < 0.005 µg/mL
3,−0.9,Clc1ccc2c(c1)N1CCC(/C=C3\CC[n+]4c3sc3ccc(Cl)cc34)=C1S2 [Dye D-168],,100.0,100.0,
,,CN1/C(=C/C=C/c2sc3ccccc3[n+]2C)Sc2ccccc21 [Dye S13],,,,solubility in 5% dextrose/water solutions ([11]; 5% dextrose/water): good solubility
,,CN1/C(=C/C=C/c2sc3cc4ccccc4cc3[n+]2C)Sc2cc3ccccc3cc21.Cc1ccc(S(=O)(=O)[O-])cc1 [Dye D-140],,,60,"CX (IC50 in the CX-1 cell line) ([1]; 3 hrs treatment, colonies after 7-10 days, unit from method b117-118): <0.005 µg/mL; solubility ([11]; among compounds with enhanced activity): most desirably soluble"
0.01,−1.1,CCN1/C(=c2\s/c(=c3\s/c(=C/c4sc5ccccc5[n+]4CC)n(CC)c3=O)n(CC)c2=O)Sc2ccccc21 [Dye D-112],9,900,900,
